Measurements: US20190375708A1 (VenatoRx Pharmaceuticals, Inc., priority 2018, published 2019)

Tests used:
[1] = tested on: HBV replication in HepAD38 cells; assay: Anti-HBV replication assay in HepAD38 cells (QPCR of extracellular HBV DNA); type: cell-based, HBV (genotype D, serotype ayw); details: Hepatitis B virus, 168 h, 7 days incubation, extracellular HBV DNA by QPCR, read-out: Anti-HBV EC50
Outline: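 HepAD38 cells (HepG2 carrying tet-repressible HBV genotype D genome) induced by tetracycline withdrawal, treated 7 days at 37 °C with compound ([…], 1-log10 dilutions). Extracellular HBV DNA quantified by QPCR against a standard curve, normalised to DMSO; EC50 from 4-parameter fit.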

[2] = In vitro cytotoxicity assay (MTT cell viability) in HepG2 cells; type: cell-based, human; details: human
Outline: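 Viability measured by MTT conversion, absorbance at 492 nm, as percent of vehicle-treated wells. Compounds spanned 30 μM to 1.0 nM in half-log steps over a 7-day exposure of parental HepG2 cells; CC50 derived by 4-parameter curve fit.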

Row | Structure (SMILES) | EC50 [1] [nM] | CC50 at 7 days [2] [nM]
1 | Cc1cc(NC(=O)c2c(C)c(C(=O)C(=O)NC3(CO)CC(F)(F)C3)n(C)c2Cl)ccc1F [Example 387, 2-chloro-5-(2-((3,3-difluoro-1-(hydroxymethyl)cyclobutyl)amino)-2-oxoacetyl)-N-(4-fluoro-3-methylphenyl)-1,4-dimethyl-1H-pyrrole-3-carboxamide] | > 1000 | 5000 to 30000
2 | Cc1c(C(=O)Nc2cc(F)c(F)c(F)c2)c(C)n(C)c1C(=O)C(=O)Nc1ccc(F)cn1 [Example 319, 5-(2-((5-fluoropyridin-2-yl)amino)-2-oxoacetyl)-1,2,4-trimethyl-N-(3,4,5-trifluorophenyl)-1H-pyrrole-3-carboxamide] | < 50 | 5000 to 30000
3 | CC(C)(CO)CNC(=O)C(=O)c1c(Cl)c(C(=O)Nc2ccc(F)c(Cl)c2)c2n1CCCC2 [Example 527, 2-chloro-N-(3-chloro-4-fluorophenyl)-3-(2-((3-hydroxy-2,2-dimethylpropyl)amino)-2-oxoacetyl)-5,6,7,8-tetrahydroindolizine-1-carboxamide] | 500 to 1000 | 500 to 4990
4 | Cc1noc(C2(NC(=O)C(=O)c3cc(C(=O)Nc4ccc(F)c(C)c4)c4n3CCCC4)CC2)n1 [Example 418, N-(4-fluoro-3-methylphenyl)-3-(2-((1-(3-methyl-1,2,4-oxadiazol-5-yl)cyclopropyl)amino)-2-oxoacetyl)-5,6,7,8-tetrahydroidolizine-1-carboxamide] | 50 to 499 | > 30000
5 | Cc1cc(NC(=O)c2c(Cl)c(C(=O)C(=O)NC(C)(C)CO)n(C)c2C)ccc1F [Example 365, 4-chloro-N-(4-fluoro-3-methylphenyl)-5-(2-((1-hydroxy-2-methylpropan-2-yl)amino)-2-oxoacetyl)-1,2-dimethyl-1H-pyrrole-3-carboxamide] | < 50 | > 30000
6 | Cc1cc(NC(=O)c2c(Cl)c(C(=O)C(=O)NCC(C)(C)CO)n3c2CCCC3)ccc1F [Example 498, 2-chloro-N-(4-fluoro-3-methylphenyl)-3-(2-((3-hydroxy-2,2-dimethylpropyl)amino)-2-oxoacetyl)-5,6,7,8-tetrahydroindolizine-1-carboxamide] | 50 to 499 | > 30000
7 | Cc1cc(NC(=O)c2c(Cl)c(C(=O)C(=O)NC(C)(C)C)n3c2CCC3)ccc1F [Example 539, 5-(2-(tert-butylamino)-2-oxoacetyl)-6-chloro-N-(4-fluoro-3-methylphenyl)-2,3-dihydro-1H-pyrrolizine-7-carboxamide] | < 50 | 5000 to 30000
8 | Cc1cc(NC(=O)c2c(C)c(C(=O)C(=O)NC(CC(C)C)c3nn[nH]n3)n(C)c2C)ccc1F (stereo not drawn) [Example 80, N-(4-fluoro-3-methylphenyl)-1,2,4-trimethyl-5-(2-((3-methyl-1-(2H-tetrazol-5-yl)butyl)amino)-2-oxoacetyl)-1H-pyrrole-3-carboxamide] | 50 to 499 | > 30000
9 | Cc1cc(NC(=O)c2c(C)c(C(=O)C(=O)NC(C)(C)CO)n(CCF)c2C)cnc1F [Example 222, N-(6-fluoro-5-methylpyridin-3-yl)-1-(2-fluoroethyl)-5-(2-((1-hydroxy-2-methylpropan-2-yl)amino)-2-oxoacetyl)-2,4-dimethyl-1H-pyrrole-3-carboxamide] | > 1000 | > 30000
10 | Cc1noc(C(C)NC(=O)C(=O)c2cc(C(=O)Nc3ccc(F)c(C)c3)c3n2CCCC3)n1 (stereo not drawn) [Example 414, N-(4-fluoro-3-methylphenyl)-3-(2-((1-(3-cmethyl-1,2,4-oxadiazol-5-yl)ethyl)amino)-2-oxoacetyl)-5,6,7,8-tetrahydroindolizine-1-carboxamide] | 50 to 499 | > 30000
11 | Cc1cc(NC(=O)c2c(C)c(C(=O)C(=O)NC3CCN(c4ncccn4)CC3)n(C)c2C)ccc1F [Example 658] | < 50 | 5000 to 30000
12 | Cc1cc(NC(=O)c2c(C)c(C(=O)C(=O)NC3(C)CCN(C(=O)c4ccnn4C)CC3)n(C)c2C)ccc1F [Example 692, N-(4-fluoro-3-methylphenyl)-1,2,4-trimethyl-5-(2-((4-methyl-1-(1-methyl-1H-pyrazole-5-carbonyl)piperidin-4-yl)amino)-2-oxoacetyl)-1H-pyrrole-3-carboxamide] | < 50 | > 30000
13 | Cc1c(C(=O)Nc2nccs2)c2n(c1C(=O)C(=O)NC(C)(C)CO)CCCC2 [Example 759, 3-(2-((1-hydroxy-2-methylpropan-2-yl)amino)-2-oxoacetyl)-2-methyl-N-(thiazol-2-yl)-5,6,7,8-tetrahydroindolizine-1-carboxamide] | 50 to 499 | > 30000
14 | Cc1c(C(=O)Nc2ccc(F)c(F)c2)c2n(c1C(=O)C(=O)NC1(C)CCNCC1)CCCC2 [Example 742] | 50 to 499 | > 30000
15 | Cc1cc(NC(=O)c2c(C)c(C(=O)C(=O)N[C@H]3CC[C@@H](O)C3)n(C)c2C)ccc1F [Example 245, N-(4-fluoro-3-methylphenyl)-5-(2-(((1S,3R)-3-hydroxycyclopentyl)amino)-2-oxoacetyl)-1,2,4-trimethyl-1H-pyrrole-3-carboxamide] | < 50 | > 30000
16 | Cc1noc([C@@H](C)NC(=O)C(=O)c2c(Cl)c(C(=O)Nc3ccc(F)c(F)c3)c3n2CCCC3)n1 [Example 517, (R)-2-chloro-N-(3,4-difluorophenyl)-3-(2-((1-(3-methyl-1,2,4-oxadiazol-5-yl)ethyl)amino)-2-oxoacetyl)-5,6,7,8-tetrahydroindolizine-1-carboxamidde] | 50 to 499 | 5000 to 30000
17 | CNC(=O)[C@@H](NC(=O)C(=O)c1c(C)c(C(=O)Nc2ccc(F)c(C)c2)c(C)n1C)C1CCC1 [Example 124, (S)-5-(2-((1-cyclobutyl-2-(methylamino)-2-oxoethyl)amino)-2-oxoacetyl)-N-(4-fluoro-3-methylphenyl)-1,2,4-trimethyl-1H-pyrrole-3-carboxamide] | < 50 | 5000 to 30000
18 | Cc1c(C(=O)Nc2cncc(Cl)c2)c(C)n(C)c1C(=O)C(=O)N[C@H]1CC[C@@H](O)CC1 [Example 726, N-(5-chloropyridin-3-yl)-5-(2-(((1s,4s)-4-hydroxycyclohexyl)amino)-2-oxoacetyl)-1,2,4-trimethyl-1H-pyrrole-3-carboxamide] | < 50 | > 30000
19 | Cc1c(C(=O)Nc2ccnc(F)c2)c(C)n(C)c1C(=O)C(=O)N[C@H]1CCC[C@@H]1O [Example 134, N-(2-fluoropyridin-4-yl)-5-(2-(((1S,2S)-2-hydroxycyclopentyl)amino)-2-oxoacetyl)-1,2,4-trimethyl-1H-pyrrole-3-carboxamide] | 50 to 499 | > 30000
20 | Cc1c(C(=O)Nc2cc(F)c(F)c(F)c2)c(Cl)c(C(=O)C(=O)N[C@@H]2CCC[C@@H]2O)n1C [Example 374, 4-chloro-5-(2-(((1R,2S)-2-hydroxycyclopentyl)amino)-2-oxoacetyl)-1,2-dimethyl-N-(3,4,5-trifluorophenyl)-1H-pyrrole-3-carboxamide] | < 50 | 500 to 4990
21 | Cc1cc(NC(=O)c2c(C)c(C(=O)C(=O)NCCc3cccs3)n(C)c2C)ccc1F [Example 347, N-(4-fluoro-3-methylphenyl)-1,2,4-trimethyl-5-(2-oxo-2-((2-(thiophen-2-yl)ethyl)amino)acetyl)-1H-pyrrole-3-carboxamide] | < 50 | > 30000
22 | Cc1nc2c(s1)CCCC2NC(=O)C(=O)c1c(C)c(C(=O)Nc2ccc(F)c(C)c2)c(C)n1C (stereo not drawn) [Example 625, N-(4-fluoro-3-methylphenyl)-1,2,4-trimethyl-5-(2-((2-methyl-4,5,6,7-tetrahydrobenzo[d]thiazol-4-yl)amino)-2-oxoacetyl)-1H-pyrrole-3-carboxamide] | < 50 | > 30000
23 | Cc1cc(NC(=O)c2c(C)c(C(=O)C(=O)N[C@@H](CO)C(=O)O)n(C)c2C)ccc1F [Example 32, (2-(4-((4-fluoro-3-methylphenyl)carbamoyl)-1,3,5-trimethyl-1H-pyrrol-2-yl)-2-oxoacetyl)-L-serine] | > 1000 | > 30000
24 | Cc1c(C(=O)Nc2cccc(C(F)F)c2)c(C)n(C)c1C(=O)C(=O)N[C@@H]1CC[C@@H](O)C1 [Example 721, N-(3-(difluoromethyl)phenyl)-5-(2-(((1R,3R)-3-hydroxycyclopentyl)amino)-2-oxoacetyl)-1,2,4-trimethyl-1H-pyrrole-3-carboxamide] | < 50 | > 30000
25 | Cc1c(C(=O)Nc2ccc(F)c(F)c2)c(C)n(C)c1C(=O)C(=O)NC1CCC(F)(F)CC1 [Example 298, 5-(2-((4,4-difluorocyclohexyl)amino)-2-oxoacetyl)-N-(3,4-difluorophenyl)-1,2,4-trimethyl-1H-pyrrole-3-carboxamide] | < 50 | > 30000
26 | Cc1cc(NC(=O)c2c(C)c(C(=O)C(=O)NCCN3CCC(O)CC3)n(C)c2C)ccc1F [Example 292, N-(4-fluoro-3-methylphenyl)-5-(2-((2-(4-hydroxypiperidin-1-yl)ethyl)amino)-2-oxoacetyl)-1,2,4-trimethyl-1H-pyrrole-3-carboxamide] | 50 to 499 | > 30000
27 | Cc1cc(NC(=O)c2c(C)c(C(=O)C(=O)N[C@H](C(=O)O)C(C)(C)C)n(C)c2C)ccc1F [Example 30, (S)-2-(22-(4-((4-fluoro-3-methylphenyl)carbamoyl)-1,3,5-trimethyl-1H-pyrrol-2-yl)-2-oxoacetamido)-3,3-dimethylbutanoic acid] | > 1000 | > 30000
